Assay [1] has as its target T1, Vitamin D3 receptor (Bos taurus) (UniProt Q28037).
T1 sequence (whole entry): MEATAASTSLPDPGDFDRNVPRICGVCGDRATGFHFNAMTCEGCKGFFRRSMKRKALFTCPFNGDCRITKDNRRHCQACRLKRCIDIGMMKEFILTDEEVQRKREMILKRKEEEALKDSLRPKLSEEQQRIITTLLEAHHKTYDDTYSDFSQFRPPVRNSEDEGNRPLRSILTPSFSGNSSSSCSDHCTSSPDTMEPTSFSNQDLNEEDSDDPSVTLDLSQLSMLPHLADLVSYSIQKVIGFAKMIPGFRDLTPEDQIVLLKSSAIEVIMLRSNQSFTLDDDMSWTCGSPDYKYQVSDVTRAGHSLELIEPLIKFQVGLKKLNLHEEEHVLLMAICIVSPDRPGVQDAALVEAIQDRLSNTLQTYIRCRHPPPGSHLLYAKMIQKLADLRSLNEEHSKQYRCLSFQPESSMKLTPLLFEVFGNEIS
Briefly: Binding affinity to bovine thymus VDR relative to 1alpha,25-dihydroxyvitamin D3.

Assay [2] addresses T1, Vitamin D3 receptor (Bos taurus). The assay is described as follows: Displacement of [3H]-1alpha,25 dihydroxyvitamin D3 from bovine thymus VDR after 60 mins relative to 1alpha,25-dihydroxyvitamin D3. A general note: Displacement assays read how much labelled ligand stays bound in the presence of the test substance.
Assay [3] concerns the target T2, Vitamin D3 receptor (Homo sapiens) (UniProt P11473).
T2 sequence (whole entry): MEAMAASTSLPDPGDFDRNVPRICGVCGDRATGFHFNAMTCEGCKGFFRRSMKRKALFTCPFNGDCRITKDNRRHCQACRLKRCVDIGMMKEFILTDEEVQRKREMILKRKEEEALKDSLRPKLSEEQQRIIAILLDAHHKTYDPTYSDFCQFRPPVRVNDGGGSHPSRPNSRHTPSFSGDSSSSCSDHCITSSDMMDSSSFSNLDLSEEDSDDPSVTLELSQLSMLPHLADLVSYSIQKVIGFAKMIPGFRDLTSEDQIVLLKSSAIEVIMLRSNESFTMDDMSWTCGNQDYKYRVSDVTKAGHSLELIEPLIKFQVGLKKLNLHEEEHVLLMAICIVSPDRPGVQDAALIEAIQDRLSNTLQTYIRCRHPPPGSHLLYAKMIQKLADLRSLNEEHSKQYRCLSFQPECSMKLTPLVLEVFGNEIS
The assay is described as follows: Binding affinity to VDR (unknown origin) relative to 1alpha,25-dihydroxyvitamin D3.

In the case of `C=C1/C(=C\C=C2/CCC[C@]3(C)[C@@H]([C@H](C)CCCC(C)(C)O)CC[C@@H]23)C[C@@H](O)[C@@H](C)[C@@H]1O`, in assay [1], the fold change (FC) is 13.

Turning to `C=C1/C(=C\C=C2/CCC[C@]3(C)[C@@H]([C@H](C)CCCC(C)(C)O)CC[C@@H]23)C[C@@H](O)C2(COC2)[C@H]1O`, in assay [2], the fold change (FC) came out at 0.002.

Regarding `C=C1/C(=C\C=C2/CCC[C@]3(C)[C@@H]([C@H](C)CCCC(C)(C)O)CC[C@@H]23)C[C@@H](O)[C@H](C)[C@@H]1O`, the fold change (FC) in assay [1] turned out to be 400.

For `C=C1/C(=C\C=C2/CCC[C@]3(C)[C@@H]([C@H](C)CCCC(C)(C)O)CC[C@@H]23)C[C@@H](O)C2(COC2)[C@@H]1O`, in assay [2], the fold change (FC) amounted to 5.

Take `C=C1/C(=C\C=C2/CCC[C@]3(C)[C@@H]([C@H](C)CCCC(C)(C)O)CC[C@@H]23)C[C@@H](O)C(C)(C)[C@@H]1O`: the fold change (FC) in assay [3] was 3.

`C=C1/C(=C\C=C2/CCC[C@]3(C)[C@@H]([C@H](C)CCCC(C)(C)O)CC[C@@H]23)C[C@H](O)C2(COC2)[C@@H]1O`: the fold change (FC) in assay [2] worked out at 0.04.

`C=C1/C(=C\C=C2/CCC[C@]3(C)[C@@H]([C@H](C)CCCC(C)(C)O)CC[C@@H]23)C[C@@H](O)C[C@@H]1O`: in assay [2], the fold change (FC) came to 100.

Turning to `C=C1/C(=C\C=C2/CCC[C@]3(C)[C@@H]([C@H](C)CCCC(C)(C)O)CC[C@@H]23)C[C@H](O)C2(COC2)[C@H]1O`, the fold change (FC) in assay [2] turned out to be 0.001.

Source of the values: ChEMBL document CHEMBL2413049, “Design and synthesis of novel 1,25-dihydroxyvitamin D3 analogues having a spiro-oxetane fused at the C2 position in the A-ring” (Bioorg Med Chem, 2013).
